ChEMBL document CHEMBL1142999, “Discovery of potent, selective, orally active, nonpeptide inhibitors of human mast cell chymase” (J Med Chem, 2007)
pKi: −log10 of the molar value. Values belong to the molecule of their own block, whether it stands above or below them. Activity calls are given as the source filed them. No cut-off for these calls is given here.

What was measured:
[1] = species on record: Homo sapiens; assay: Inhibition of human chymotrypsin at 100 uM
[2] = target: Trypsin (Homo sapiens, UniProt P07477+P07478+P35030); assay: Inhibition of human trypsin; assay type: protein assay
[3] = Oral bioavailability in rat; assay type: ADME, organism-based; settings: in vivo
[4] = target: T1, Cathepsin G (Homo sapiens, UniProt P08311); assay: Inhibition of human neutrophil Cat G
T1 sequence (P08311 whole entry): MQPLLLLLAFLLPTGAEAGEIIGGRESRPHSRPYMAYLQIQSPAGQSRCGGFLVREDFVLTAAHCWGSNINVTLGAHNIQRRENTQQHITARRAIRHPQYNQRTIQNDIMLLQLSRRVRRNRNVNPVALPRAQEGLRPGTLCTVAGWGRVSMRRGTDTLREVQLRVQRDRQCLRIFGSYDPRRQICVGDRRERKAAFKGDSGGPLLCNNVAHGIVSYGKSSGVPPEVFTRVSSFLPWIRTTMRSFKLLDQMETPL

[5] = Half life in orally dosed rat; assay type: ADME, organism-based; settings: in vivo, po
[6] = species on record: Homo sapiens; assay: Inhibition of human beta-tryptase at 100 uM
[7] = target: T2, Neutrophil elastase (Homo sapiens) (UniProt P08246); assay: Inhibition of human leukocyte elastase at 100 uM
T2 sequence (whole entry): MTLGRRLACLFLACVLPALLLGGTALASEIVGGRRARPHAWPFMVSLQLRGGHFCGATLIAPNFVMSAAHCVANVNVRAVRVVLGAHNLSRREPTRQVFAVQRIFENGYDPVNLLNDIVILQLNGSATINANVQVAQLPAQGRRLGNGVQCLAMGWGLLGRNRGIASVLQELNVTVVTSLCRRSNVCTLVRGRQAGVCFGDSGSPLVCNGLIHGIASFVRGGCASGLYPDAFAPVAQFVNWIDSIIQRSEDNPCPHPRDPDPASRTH

[8] = target: Coagulation factor X (Homo sapiens) (UniProt P00742); assay: Inhibition of human factor Xa at 100 uM
Sequence of Coagulation factor X (Homo sapiens) (P00742 41-179 limits assumed): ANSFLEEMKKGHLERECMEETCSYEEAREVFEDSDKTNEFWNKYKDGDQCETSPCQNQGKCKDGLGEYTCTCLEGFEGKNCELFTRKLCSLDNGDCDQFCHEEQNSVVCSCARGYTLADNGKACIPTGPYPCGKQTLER
Sequence of Coagulation factor X (Homo sapiens) (P00742 235-488 limits assumed): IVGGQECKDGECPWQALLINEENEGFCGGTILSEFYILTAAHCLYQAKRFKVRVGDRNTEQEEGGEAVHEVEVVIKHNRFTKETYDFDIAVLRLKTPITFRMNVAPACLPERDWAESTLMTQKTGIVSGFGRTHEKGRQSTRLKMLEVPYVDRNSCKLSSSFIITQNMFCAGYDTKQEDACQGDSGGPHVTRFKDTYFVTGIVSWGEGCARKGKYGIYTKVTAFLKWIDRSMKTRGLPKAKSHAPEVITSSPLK

[9] = target: T3, Coagulation factor VII (Homo sapiens) (UniProt P08709); assay: Inhibition of human factor VIIa at 100 uM
T3 sequence (whole entry): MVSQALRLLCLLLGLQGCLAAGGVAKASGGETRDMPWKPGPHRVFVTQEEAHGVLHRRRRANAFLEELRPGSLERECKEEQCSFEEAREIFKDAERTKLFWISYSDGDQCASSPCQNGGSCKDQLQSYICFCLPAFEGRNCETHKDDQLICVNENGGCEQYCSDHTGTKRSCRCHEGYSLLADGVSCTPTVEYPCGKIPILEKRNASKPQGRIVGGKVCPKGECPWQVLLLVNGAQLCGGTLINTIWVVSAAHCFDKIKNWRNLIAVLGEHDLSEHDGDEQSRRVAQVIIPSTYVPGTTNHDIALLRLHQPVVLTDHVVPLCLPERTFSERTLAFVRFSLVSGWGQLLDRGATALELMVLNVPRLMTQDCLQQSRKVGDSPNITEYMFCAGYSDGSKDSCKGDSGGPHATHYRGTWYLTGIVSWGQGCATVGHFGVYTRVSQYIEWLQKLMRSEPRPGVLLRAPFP

[10] = species on record: Homo sapiens; assay: Inhibition of human alpha-thrombin at 100 uM
[11] = test system: Syrian golden hamster; assay: Antiinflammatory activity against carrageenan-induced paw inflammation in golden Syrian hamster at 10 mg/kg, im; assay type: functional, organism-based; design: dose 10 mg/kg; settings: Mesocricetus auratus
[12] = target: T4, Cathepsin G (Homo sapiens) (UniProt P08311); assay: Inhibition of human neutrophil Cat G at 100 uM
T4 sequence (whole entry): T1 sequence (P08311 whole entry)

[13] = test system: Syrian golden hamster; assay: Antiinflammatory activity against carrageenan-induced paw inflammation in golden Syrian hamster at 30 mg/kg, po; assay type: functional; settings: Mesocricetus auratus
[14] = Cmax in rat; assay type: ADME, organism-based; settings: in vivo
[15] = target: T5, Chymase (Homo sapiens) (UniProt P23946); assay: Inhibition of human skin chymase at 10 uM
T5 sequence (whole entry): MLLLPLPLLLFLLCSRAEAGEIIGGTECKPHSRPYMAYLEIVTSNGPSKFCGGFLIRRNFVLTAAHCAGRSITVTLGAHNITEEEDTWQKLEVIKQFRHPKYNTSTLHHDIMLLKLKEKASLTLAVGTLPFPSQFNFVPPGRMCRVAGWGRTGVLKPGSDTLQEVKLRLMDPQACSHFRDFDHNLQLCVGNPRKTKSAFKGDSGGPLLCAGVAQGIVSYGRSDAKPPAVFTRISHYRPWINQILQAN

inhibition [1]: < 50% | IC50 [2]: 12 µM | bioavailability [3]: 3% | pKi [4]: 5.02 | half-life [5]: 1.8 h | inhibition [6]: < 50% | inhibition [7]: < 50% | inhibition [8]: < 50% | inhibition [9]: < 50% | inhibition [10]: < 50%
SMILES: O=C(Nc1ccc2ccccc2c1)C(c1csc2ccc(Cl)cc12)P(=O)(O)O (configuration not stated)

inhibition [12]: 0%
SMILES: O=C(Nc1ccc2ccccc2c1)C(c1cccc2ccccc12)P(=O)(O)O (configuration not stated)

bioavailability [3]: 39% | half-life [5]: 4.5 h | Cmax [14]: 6 µM
SMILES: CP(=O)(O)C(C(=O)N/C=C/c1cc(F)cc(Cl)c1)c1csc2ccc(Cl)cc12 (configuration not stated)
inhibition in vivo at 30 mg/kg [13]: 50%

More lines, now with the values behind:

SMILES: C[C@@H]1C[C@H]2[C@@H]3CCC4=CC(=O)C=C[C@]4(C)[C@@]3(F)[C@@H](O)C[C@]2(C)[C@@]1(O)C(=O)CO
Activity [11]: Active

SMILES: O=C(Nc1ccc2ccccc2c1)C(n1nnc2ccccc21)P(=O)(O)O (configuration not stated)
inhibition [15]: < 50%
